Laboratory results taken from the NIST ThermoML archive (doi:10.1021/je600519p).

Assay: xn = mol fraction of the nth substance listed
Conditions: 101 kPa, Liquid

CC(=O)c1ccccc1 [acetophenone] + CCOC(=O)OCC
Conditions | mass density [kg/m3] | speed of sound [m/s] | viscosity [mPa·s]
293.15 K, x2 = 0.0511 | 1025.19 | 1443 | 1.754
293.15 K, x2 = 0.1014 | 1023.01 | 1405 | 1.688
293.15 K, x2 = 0.1501 | 1020.69 | 1377 | 1.625
293.15 K, x2 = 0.1996 | 1018.39 | 1347 | 1.564
293.15 K, x2 = 0.2465 | 1016.19 | 1322 | 1.507
293.15 K, x2 = 0.3041 | 1013.29 | 1297 | 1.441
293.15 K, x2 = 0.3467 | 1011.15 | 1280 | 1.391
293.15 K, x2 = 0.4001 | 1008.46 | 1265 | 1.329
293.15 K, x2 = 0.4507 | 1005.89 | 1251 | 1.276
293.15 K, x2 = 0.4888 | 1003.9 | 1242 | 1.238
293.15 K, x2 = 0.5506 | 1000.67 | 1231 | 1.174
293.15 K, x2 = 0.6038 | 997.77 | 1222 | 1.122
293.15 K, x2 = 0.6498 | 995.25 | 1218 | 1.079
293.15 K, x2 = 0.7104 | 991.92 | 1215 | 1.025
293.15 K, x2 = 0.7513 | 989.53 | 1213 | 0.989
293.15 K, x2 = 0.8078 | 986.29 | 1210 | 0.941
293.15 K, x2 = 0.8522 | 983.66 | 1208 | 0.906
293.15 K, x2 = 0.8993 | 980.83 | 1207 | 0.869
293.15 K, x2 = 0.9488 | 977.82 | 1206 | 0.833
303.15 K, x2 = 0.0511 | 1016.4 | 1408 | 1.455
303.15 K, x2 = 0.1014 | 1014.09 | 1369 | 1.402
303.15 K, x2 = 0.1501 | 1011.77 | 1339 | 1.352
303.15 K, x2 = 0.1996 | 1009.35 | 1312 | 1.302
303.15 K, x2 = 0.2465 | 1007.04 | 1290 | 1.257
303.15 K, x2 = 0.3041 | 1004.02 | 1265 | 1.203
303.15 K, x2 = 0.3467 | 1001.78 | 1249 | 1.165
303.15 K, x2 = 0.4001 | 998.99 | 1232 | 1.118
303.15 K, x2 = 0.4507 | 996.27 | 1217 | 1.075
303.15 K, x2 = 0.4888 | 994.18 | 1208 | 1.042
303.15 K, x2 = 0.5506 | 990.73 | 1198 | 0.993
303.15 K, x2 = 0.6038 | 987.73 | 1194 | 0.952
303.15 K, x2 = 0.6498 | 985.06 | 1193 | 0.918
303.15 K, x2 = 0.7104 | 981.54 | 1192 | 0.875
303.15 K, x2 = 0.7513 | 979.05 | 1191 | 0.848
303.15 K, x2 = 0.8078 | 975.68 | 1190 | 0.811
303.15 K, x2 = 0.8522 | 972.91 | 1189 | 0.784
303.15 K, x2 = 0.8993 | 969.91 | 1188 | 0.755
303.15 K, x2 = 0.9488 | 966.78 | 1187 | 0.727
313.15 K, x2 = 0.0511 | 1007.58 | 1365 | 1.232
313.15 K, x2 = 0.1014 | 1005.19 | 1326 | 1.188
313.15 K, x2 = 0.1501 | 1002.73 | 1292 | 1.148
313.15 K, x2 = 0.1996 | 1000.2 | 1263 | 1.11
313.15 K, x2 = 0.2465 | 997.78 | 1238 | 1.073
313.15 K, x2 = 0.3041 | 994.63 | 1212 | 1.03
313.15 K, x2 = 0.3467 | 992.31 | 1196 | 0.998
313.15 K, x2 = 0.4001 | 989.35 | 1180 | 0.961
313.15 K, x2 = 0.4507 | 986.55 | 1168 | 0.925
313.15 K, x2 = 0.4888 | 984.35 | 1160 | 0.9
313.15 K, x2 = 0.5506 | 980.71 | 1153 | 0.86
313.15 K, x2 = 0.6038 | 977.48 | 1152 | 0.827
313.15 K, x2 = 0.6498 | 974.69 | 1151 | 0.799
313.15 K, x2 = 0.7104 | 971.04 | 1150 | 0.765
313.15 K, x2 = 0.7513 | 968.47 | 1149 | 0.742
313.15 K, x2 = 0.8078 | 964.89 | 1148 | 0.711
313.15 K, x2 = 0.8522 | 961.99 | 1147 | 0.688
313.15 K, x2 = 0.8993 | 958.99 | 1146 | 0.665
313.15 K, x2 = 0.9488 | 955.63 | 1145 | 0.641
323.15 K, x2 = 0.0511 | 998.79 | 1305 | 1.057
323.15 K, x2 = 0.1014 | 996.27 | 1265 | 1.023
323.15 K, x2 = 0.1501 | 993.68 | 1234 | 0.991
323.15 K, x2 = 0.1996 | 991.08 | 1208 | 0.959
323.15 K, x2 = 0.2465 | 988.56 | 1185 | 0.929
323.15 K, x2 = 0.3041 | 985.24 | 1164 | 0.893
323.15 K, x2 = 0.3467 | 982.8 | 1151 | 0.868
323.15 K, x2 = 0.4001 | 979.74 | 1137 | 0.837
323.15 K, x2 = 0.4507 | 976.77 | 1126 | 0.809
323.15 K, x2 = 0.4888 | 974.49 | 1121 | 0.787
323.15 K, x2 = 0.5506 | 970.76 | 1118 | 0.755
323.15 K, x2 = 0.6038 | 967.47 | 1117 | 0.727
323.15 K, x2 = 0.6498 | 964.54 | 1116 | 0.704
323.15 K, x2 = 0.7104 | 960.63 | 1115 | 0.676
323.15 K, x2 = 0.7513 | 957.86 | 1114 | 0.656
323.15 K, x2 = 0.8078 | 954.13 | 1113 | 0.631
323.15 K, x2 = 0.8522 | 951.07 | 1112 | 0.612
323.15 K, x2 = 0.8993 | 947.76 | 1111 | 0.592
323.15 K, x2 = 0.9488 | 944.32 | 1110 | 0.573
